Experiment: mn = molality of the nth substance listed, in mol/kg
Conditions: 101 kPa, Liquid; for viscosity: Capillary tube (Ostwald / Ubbelohde) method; for speed of sound: Linear variable-path acoustic interferometer

CC(=O)[O-].CC(=O)[O-].[Mg+2] [magnesium acetate] + O
Conditions | speed of sound, 273.15 K [m/s] | speed of sound, 278.15 K [m/s] | speed of sound, 283.15 K [m/s] | speed of sound, 288.15 K [m/s] | viscosity, 273.15 K [mPa·s] | viscosity, 278.15 K [mPa·s] | viscosity, 283.15 K [mPa·s] | viscosity, 288.15 K [mPa·s] | viscosity, 293.15 K [mPa·s]
m1 = 0.0414 | 1411.1 | 1433.9 | 1453.9 | 1471.7 | 1.895 | 1.603 | 1.374 | 1.196 | 1.052
m1 = 0.0831 | 1421.7 | 1443.6 | 1464.2 | 1481.5 | 1.974 | 1.663 | 1.423 | 1.238 | 1.089
m1 = 0.1671 | 1435.8 | 1458.6 | 1477 | 1494.1 | 2.142 | 1.805 | 1.54 | 1.335 | 1.17
m1 = 0.4247 | 1486.1 | 1504.5 | 1522.7 | 1535.1 | 2.763 | 2.301 | 1.954 | 1.677 | 1.461
m1 = 0.646 | 1523.6 | 1539.4 | 1553.8 | 1566.5 | 3.52 | 2.887 | 2.444 | 2.072 | 1.788
m1 = 0.8751 | 1563.5 | 1571.6 | 1584.2 | 1601.1 | 4.302 | 3.533 | 2.956 | 2.499 | 2.15
m1 = 1.106 | 1599.6 | 1611.8 | 1622.1 | 1631.4 | 5.537 | 4.511 | 3.725 | 3.138 | 2.678
m1 = 1.354 | 1633.9 | 1644.1 | 1651.4 | 1659.4 | 7.125 | 5.709 | 4.687 | 3.895 | 3.294
m1 = 1.608 | 1670.3 | 1679.6 | 1685.9 | 1692.8 | 7.125 | 5.709 | 4.687 | 3.895 | 3.294
m1 = 1.866 | 1705.9 | 1713 | 1718.2 | 1722.3 | 12.12 | 9.522 | 7.615 | 6.192 | 5.143
m1 = 2.134 | 1742.2 | 1746.8 | 1750.4 | 1752.7 | 16.35 | 12.57 | 9.905 | 8.005 | 6.573
m1 = 2.411 | 1777.1 | 1780.1 | 1781.4 | 1782.9 | 23.36 | 17.59 | 13.67 | 10.8 | 8.745
m1 = 2.622 | 1797.1 | 1799.2 | 1799.1 | 1799.1 | 28.17 | 21.2 | 16.25 | 12.79 | 10.25
m1 = 3.043 | 1840.9 | 1839.8 | 1838.2 | 1835.6 | 45.46 | 33.22 | 24.92 | 19.07 | –
m1 = 3.437 | 1885.2 | 1881.6 | 1877.4 | 1872.2 | 85.35 | 59.47 | 43.12 | 31.95 | –
m1 = 3.819 | 1910.1 | 1903.6 | 1897.9 | 1891.9 | – | – | – | – | –
m1 = 4.001 | – | – | – | – | 167.7 | 110.6 | 77.03 | 55.77 | –
m1 = 4.547 | 1953.7 | 1945.3 | 1936.1 | 1927.4 | – | – | – | – | –
m1 = 4.563 | – | – | – | – | 374.7 | 234.4 | 153.7 | 105.5 | –
m1 = 4.929 | – | – | – | – | – | – | 208.4 | 140.3 | –
m1 = 5.165 | – | – | 1964.1 | 1953.3 | – | – | – | – | –

— the NIST ThermoML archive (doi:10.1021/je060107n)
